According to patent publication US20170029366A1, “INHIBITORS OF HISTONE LYSINE SPECIFIC DEMETHYLASE (LSD1) AND HISTONE DEACETYLASES (HDACS)” (THE JOHNS HOPKINS UNIVERSITY, priority 2014, published 2017):
Several values for one entry are separate records, joined by “and”; a condition that tells them apart may be missing. Equal values may be shown once. Where a name gives a salt, the structure may show the parent alone.

Legend:
[1] = target: T1, GST-LSD1 (Homo sapiens, UniProt O60341); details: for k(inact) / KI (inactivation): GST-LSD1, peroxidase-coupled assay; for KI (inactivation): extrapolated to zero substrate; for k(inact)/Ki(inact): GST-LSD1 inactivation efficiency; for LSD1 inhibitory potency (in words): structure-activity comment on Table 1
[2] = target: T1, GST-LSD1; test: biochemical
[3] = tested on: LNCaP cells; test: Drug combination experiments with bizine ([3H] thymidine, Combination Index); format: cell-based; details: binary combination with bizine, 48 h, 3H-thymidine incorporation
[4] = tested on: H3K4Me2 in LNCaP cells; test: Western blot of histone H3 marks in LNCaP cells; format: cell-based; details: 48 h, concentrations up to 40 M
[5] = tested on: Immature primary cortical neurons; test: Oxidative toxicity (HCA) and neuron viability assay (MTT); format: cell-based, Sprague Dawley rats; details: 10 M phenelzine compared with 0.5 μM bizine

SMILES | k(inact) [1] | k(inact)/Ki(inact) [1] | further results
CNNCCCc1ccc(OC)cc1 [Compound 9f, 1-[3-(4-Methoxyphenyl)propyl]-2-methylhydrazine dihydrochloride] | – | – | IC50 [2]: > 100000 nM
NNCCCc1ccc(OCc2ccccc2)cc1 [Compound 14, {3-[4-(Benxyloxy)phenyl]propyl}hydrazine] | 0.18 ± 0.038 min⁻¹ | 3330 ± 1830 M⁻¹ s⁻¹ | KI (inactivation) [1]: 900 ± 450 nM; LSD1 inhibitory potency (in words) [1]: reduced LSD1 inhibitory potency
NNCCc1ccc(NC(=O)CCCc2ccc([N+](=O)[O-])cc2)cc1.O=S(=O)(O)O [Compound 12i, N-[4-(2-Hydrazinylethyl)phenyl]-4-(4-nitrophenyl)butanamide sulfate] | 0.21 ± 0.024 min⁻¹ | 12300 ± 3670 M⁻¹ s⁻¹ | –
Nc1ccccc1NC(=O)c1ccc(CNC(=O)OCc2cccnc2)cc1 [MS-275] | – | – | effect of combination with bizine on cell inhibition (in words) [3]: additive to synergistic effects
NNCCc1ccc(NC(=O)CCc2ccccc2)cc1.O=S(=O)(O)O [Compound 12c, N-[4-(2-Hydrazinylethyl)phenyl]-3-phenylpropanamide sulfate] | 0.24 ± 0.022 min⁻¹ | 15300 ± 3670 M⁻¹ s⁻¹ | –
COc1ccc(CCCC(=O)Nc2ccc(CCNN)cc2)cc1.O=S(=O)(O)O [Compound 12h, N-[4-(2-Hydrazinylethyl)phenyl]-4-(4-methoxyphenyl)butanamide sulfate] | 0.26 ± 0.042 min⁻¹ | 20000 ± 9500 M⁻¹ s⁻¹ | KI (inactivation) [1]: 207 ± 89 nM
CN(C)NCCc1ccccc1 [Compound 9b, 1,1-Dimethyl-2-(2-phenylethyl)hydrazine] | – | – | IC50 [2]: > 100000 nM
NNCCc1ccc(NC(=O)CCc2c[nH]c3ccccc23)cc1.O=S(=O)(O)O [Compound 15a, N-[4-(2-Hydrazinylethyl)phenyl]-3-(1H-indol-3-yl)propanamide sulfate] | 0.21 ± 0.030 min⁻¹ | 16700 ± 6830 M⁻¹ s⁻¹ | –
NNCCc1ccc(NC(=O)/C=C/c2ccccc2)cc1.O=S(=O)(O)O [Compound 13, (2E)-N-[4-(2-Hydrazinylethyl)phenyl]-3-phenylprop-2-enamide sulfate] | 0.17 ± 0.21 min⁻¹ | 28300 ± 11300 M⁻¹ s⁻¹ | LSD1 inhibitory potency (in words) [1]: reduced LSD1 inhibitory potency
NNCCc1ccc(NC(=O)CCCc2ccc(Cl)cc2)cc1.O=S(=O)(O)O [Compound 12f, 4-(4-Chlorophenyl)-N-[4-(2-hydrazinylethyl)phenyl]butanamide sulfate] | 0.17 ± 0.018 min⁻¹ | 18300 ± 5830 M⁻¹ s⁻¹ | –
NNCCCN1CCOCC1 [Compound 11, 4-(3-Hydrazinylpropyl) morpholine, reference compound] | – | – | IC50 [2]: > 100000 nM; LSD1 inhibitory potency (in words) [1]: not compatible with LSD1 inhibition
Cc1[nH]c2ccccc2c1CCNCc1ccc(/C=C/C(=O)NO)cc1 [LBH-589] | – | – | effect of combination with bizine on cell inhibition (in words) [3]: additive to synergistic effects

More lines, main results first:

k(inact) [1] | k(inact)/Ki(inact) [1] | SMILES | further results
0.17 ± 0.020 min⁻¹ | 12700 ± 4000 M⁻¹ s⁻¹ | CS(=O)(=O)Oc1cccc(CCC(=O)Nc2ccc(CCNN)cc2)c1.O=C(O)C(=O)O [Compound 12k, 3-(3-{[4-(2-Hydrazinylethyl)phenyl]amino}-3-oxopropyl)phenyl methanesulfonate oxalate] | KI (inactivation) [1]: 223 ± 64 nM
0.24 ± 0.033 min⁻¹ | 2000 ± 750 M⁻¹ s⁻¹ | CN(C(=O)CCCc1ccccc1)c1ccc(CCNN)cc1.O=C(O)C(=O)O [Compound 12l, N-[4-(2-Hydrazinylethyl)phenyl]-N-methyl-4-phenylbutanamide oxalate] | –
0.15 ± 0.010 min⁻¹ | 56.7 ± 13.2 M⁻¹ s⁻¹ | Cl.Cl.NNCCOc1ccccc1 [Compound 10a, (2-Phenoxyethyl)hydrazine dihydrochloride] | –
0.20 ± 0.0087 min⁻¹ | 9000 ± 900 M⁻¹ s⁻¹ | Cl.Cl.NNCCc1ccc(NC(=O)Cc2ccccc2)cc1 [Compound 12b, N-[4-(2-Hydrazinylethyl)phenyl]-2-phenylacetamide dihydrochloride] | –
0.18 ± 0.034 min⁻¹ | 14700 ± 7670 M⁻¹ s⁻¹ | CS(=O)(=O)Oc1ccccc1CCC(=O)Nc1ccc(CCNN)cc1.O=C(O)C(=O)O [Compound 12j, 2-(3-{[4-(2-Hydrazinylethyl)phenyl]amino}-3-oxopropyl)phenyl methanesulfonate oxalate] | KI (inactivation) [1]: 204 ± 98 nM
0.35 min⁻¹ and 0.35 ± 0.056 min⁻¹ | – | NNCCc1ccccc1 [phenelzine, reference compound] | H3K4Me2 changes [4]: did not induce H3K4Me2 changes; neuroprotection after HCA-treatment [5]: comparable
0.19 ± 0.036 min⁻¹ | 11700 ± 5170 M⁻¹ s⁻¹ | Cl.Cl.NNCCc1ccc(NC(=O)c2ccccc2)cc1 [Compound 12a, N-[4-(2-Hydrazinylethyl)phenyl]benzamide dihydrochloride] | –
0.22 ± 0.020 min⁻¹ | 300 ± 60 M⁻¹ s⁻¹ | Cl.Cl.NNCCCOc1ccccc1 [Compound 10b, (3-Phenoxypropyl)hydrazine dihydrochloride] | –
0.15 ± 0.023 min⁻¹ | 317 ± 145 M⁻¹ s⁻¹ | COc1ccc(CCCNN)cc1.Cl.Cl [Compound 9e, [3-(4-Methoxyphenyl)propyl]hydrazine dihydrochloride] | LSD1 inhibitory potency (in words) [1]: made little difference
0.22 ± 0.025 min⁻¹ | 2330 ± 733 M⁻¹ s⁻¹ | NNCCc1ccc(N(Cc2ccccc2)C(=O)CCCc2ccccc2)cc1.O=C(O)C(=O)O [Compound 12m, N-Benzyl-N-[4-(2-hydrazinylethyl)phenyl]-4-phenylbutanamide oxalate] | –
0.22 ± 0.038 min⁻¹ | 14300 ± 6500 M⁻¹ s⁻¹ | NNCCc1ccc(NC(=O)CCCCc2ccccc2)cc1.O=C(O)C(=O)O [Compound 12e, N-[4-(2-Hydrazinylethyl)phenyl]-5-phenylpentanamide oxalate] | –
0.12 ± 0.01 min⁻¹ | 91.7 ± 14.5 M⁻¹ s⁻¹ | Cl.Cl.NNCCCCc1ccccc1 [Compound 9h, (4-Phenylbutyl)hydrazine dihydrochloride] | –
0.32 ± 0.010 min⁻¹ | – | Cl.Cl.NNCCCc1ccccc1 [Compound 9c, (3-Phenylpropyl)hydrazine dihydrochloride] | –
